{
  "source": "patent EP1129187B1",
  "about": "“NEW FAMILY OF MAMMALIAN POTASSIUM CHANNELS, THEIR CLONING AND THEIR USE, ESPECIALLY FOR THE SCREENING OF DRUGS” (CENTRE NATIONAL DE LA RECHERCHE SCIENTIFIQUE (CNRS), priority 1998, dated 2000)",
  "format_in_all_cases": "cell-based",
  "key": {"[1]": {"target": "T1, human TWIK-1 K+ channel, SEQ ID NO: 2 (Homo sapiens, UniProt O00180)", "T1 construct": "expressed in transfected cells; host or cells: Xenopus laevis oocytes injected with cRNA transcribed from pEXO-TWIK-1", "T1 sequence (O00180 1-336)": "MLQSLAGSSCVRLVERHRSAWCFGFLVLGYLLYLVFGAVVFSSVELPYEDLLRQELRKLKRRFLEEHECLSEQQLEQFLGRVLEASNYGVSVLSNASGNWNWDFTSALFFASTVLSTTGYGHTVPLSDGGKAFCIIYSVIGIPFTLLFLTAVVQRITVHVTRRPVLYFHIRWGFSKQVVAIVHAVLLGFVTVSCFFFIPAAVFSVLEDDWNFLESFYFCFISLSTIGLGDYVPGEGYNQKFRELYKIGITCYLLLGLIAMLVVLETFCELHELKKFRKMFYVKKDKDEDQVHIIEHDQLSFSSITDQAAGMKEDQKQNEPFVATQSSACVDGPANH", "assay": "TWIK-1 K+ currents, two-electrode voltage clamp in Xenopus oocytes injected with TWIK-1 cRNA", "details": "30 nM, activation of protein kinase C", "experimental": "For the functional study, the coding sequence of TWIK-1 was inserted between the noncoding sequences 5' and 3' of Xenopus globin in the vector pEXO (Lingueglia, E. et al., 1993, J. Biol. Chem., 269, 13736-13739). A complementary RNA (cRNA) was transcribed of this construction and injected in the oocytes of X laevis. In a 0.3ml perfusion chamber, a single oocyte was impaled on two standard glass microelectrodes (0.5 - 2.0 MW) charged with 3 M KCI and maintained under voltage-clamp with a Dagan TEV200 amplifier. The bath solution contained 98 mM KCl,1.8 raM CaCl2 […] and 5 mM HEPES at pH 7.4 with KOH. Stimulation of the preparation, data acquisition and analyses were carried out with the pClamp program (Axon Instruments) USA3.\nIntracellular acidification of the oocytes was produced using two methods: • superfusion with a solution enriched in CO2 which produces acidification by a mechanism involving the bicarbonate transport system (Guillemare, E. et al., 1995, Mol. Pharmacol., 47, 588-594); • treatment with dinitrophenol (DNP), which is a metabolic inhibitor that decouples the H+ gradient in mitochondria and induces internal acidity (Pedersen, P. L. and Carafoli, E., 1997, Trends Biol. Sci., 12, 146-189).\n(§1) Phosphorylation or dephosphorylation of specific amino acid residues is an important mechanism of regulation of the ionic channels (Levitan, I. B., 1994, Annul Rev. Physiol., 56, 193-212)."}, "[2]": {"test_system": "human TWIK-1 K+ channel, mutation of the threonine 161 into alanine", "assay": "Currents of mutated TWIK-1 channel in Xenopus oocytes", "details": "mutant Thr161 to Ala", "experimental": "The TWIK-1 coding sequence was amplified using a low-error rate DNA polymerase (Pwo DNA pal, Boehringer) and subcloned in the plasmid pEXO so as to yield pEXO-TWIK-1. Mutations were performed using the whole plasmid pEXO-TWIK-1 with a highly reliable PCR extension kit (Boehringer) and two adjacent primers. One of these introduced a punctiform mutation in the IINIK-1 coding sequence, changing the 161 Thr codon into a codon for alanine. The product of the PCR was linearized by the enzyme BamHI and the cRNA were synthesized using a T7 RNA polymerase (Stratagene). Preparation of the X. larvis oocytes and cRNA injection were carried out in accordance with the literature (Guillemare, E. et al., 1992, Biochemistry. 31, 1246312468,\nas §1"}, "[3]": {"target": "human TASK1 K+ channel, SEQ ID NO: 4 (Homo sapiens, UniProt O14649)", "sequence (O14649 whole entry, the tested form may be a part)": "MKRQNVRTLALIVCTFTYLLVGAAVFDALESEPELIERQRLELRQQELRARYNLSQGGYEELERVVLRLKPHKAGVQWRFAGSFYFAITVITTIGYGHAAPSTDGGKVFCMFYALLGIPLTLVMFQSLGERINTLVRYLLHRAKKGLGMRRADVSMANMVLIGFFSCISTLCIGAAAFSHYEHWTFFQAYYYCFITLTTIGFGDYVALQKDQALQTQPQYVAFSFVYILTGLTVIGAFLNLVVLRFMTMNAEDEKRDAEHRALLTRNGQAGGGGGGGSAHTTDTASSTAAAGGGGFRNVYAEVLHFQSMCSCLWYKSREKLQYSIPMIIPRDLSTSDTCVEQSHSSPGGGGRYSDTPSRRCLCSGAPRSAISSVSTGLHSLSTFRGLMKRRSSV", "assay": "TASK1 currents elicited by voltage pulses to +50 mV, two-electrode voltage clamp in Xenopus oocytes", "details": "40 nM, activation of protein kinase C", "experimental": "For functional studies, TASK1 cRNAs were injected into Xenopus oocytes. This was accomplished by subcloning a 2480 bp SmaI/XhoI fragment from pBS-hT ASK containing 14 bp of 5' UTR, the coding sequence and the entire 3' UTR into the pEXO vector (Lingueglia et al., 1993) to give pEXO-TASK1. Capped-cRNAs were synthesised in vitro from the linearized plasmid by using the T7 RNA polymerase (Stratagene). Xenopus laevis were purchased from CRBM (Montpellier, France). Preparation and cRNA injection of oocytes has been described elsewhere (Guillemare et al., 1992). Oocytes were used for electrophysiological studies 2 to 4 days following injection (20 ng/oocyte). In a 0.3 ml perfusion chamber, a single oocyte was impaled with two standard microelectrodes (1-2.5 Mn resistance) filled with 3 M KCI and maintained under voltage clamp by using a Dagan TEV 200 amplifier, in standard ND96 solution (96 mM NaC1. 2 mM KCI, 1.8 mM CaCI2, 2 mM MgCl2, 5 mM HEPES, pH 7.4 with NaOH). In some experiments, NaCl was substituted with TMA Cl (Tetra Methyl Ammonium Chloride). Stimulation of the preparation, data acquisition, and analysis were performed using pClamp software (Axon instruments, USA). Drugs were applied externally by addition to the superfusate (flow rate: 3 ml/min) or intracellularly injected by using a pressure microinjector (Inject+Matic, Switzedand). All experiments were performed at room temperature (21-22 °C).\nFigure 12A presents the I-V relationships of the current in K^+-rich solutions ranging from 2 mM to 98 mM. […] The theoretical I-V relationships in various [K^+]out calculated according to the Goldman-Hodgkin-Katz current equation are shown in Figure 12D. […] The effect of various pharmacological agents on currents elicited by voltage pulses to +50 mV has been studied in TASK1-expressing oocytes."}, "[4]": {"target": "T2, human TASK-2 K+ channel, SEQ ID NO: 28 (Homo sapiens, UniProt O95279)", "T2 construct": "expressed in transfected cells; host or cells: COS cells transiently transfected with pIREScd8-TASK-2 (DEAE-dextran)", "T2 sequence (O95279 1-499)": "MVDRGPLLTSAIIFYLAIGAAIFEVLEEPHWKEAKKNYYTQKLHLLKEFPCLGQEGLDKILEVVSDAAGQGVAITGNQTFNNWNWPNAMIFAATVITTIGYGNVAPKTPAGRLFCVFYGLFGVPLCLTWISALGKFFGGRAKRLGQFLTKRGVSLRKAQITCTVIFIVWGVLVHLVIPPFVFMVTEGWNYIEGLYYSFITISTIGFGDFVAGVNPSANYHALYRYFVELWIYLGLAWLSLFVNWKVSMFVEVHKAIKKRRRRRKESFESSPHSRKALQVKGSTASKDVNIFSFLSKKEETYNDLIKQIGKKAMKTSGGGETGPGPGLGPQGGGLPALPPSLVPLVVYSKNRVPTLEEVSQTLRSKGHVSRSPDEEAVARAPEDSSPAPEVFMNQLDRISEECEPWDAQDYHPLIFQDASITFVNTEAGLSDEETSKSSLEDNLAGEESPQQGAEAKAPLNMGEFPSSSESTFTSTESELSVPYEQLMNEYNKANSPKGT", "assay": "TASK-2 currents elicited by voltage pulses to +50 mV, whole cell recording in transfected COS cells", "details": "70 nM, activation of PKC", "experimental": "For patch clamp analyses, a NotI/EcoRI fragment of 3.2 kb was excised from pBS-TASK 2 and subcloned into the pIRES-CD8 vectorto givepIREScdB-TASK-2. ThepIRES-CD8 vector was obtained by replacing the neo^R gene in the original vector pIRESneo (Clontech) by the coding sequence of the T type lymphocyte's surface marker CD8. COS cells were seeded at a density of 20,000 cells per 35 mm dishes 24 h prior to transfection. Cells were then transiently transfected by the classical DEAE-dextian method with 1 µg of prREScdB-TASK-2 plasmid per 35 mm dish. Transiently-transfected cells were visualized 48 h after transfection using the anti-CD8 antibody coated beads method (24). For whole cell recordings, the internal solution contained 150 mM KCI, 3 mM MgCl2, 5 mM EGTA, and 10 mM HEPES at pH 7.2 with KOH, and he external solution 150 mM NaCl, 5 mM KCI, 3 mM MgCl2 1 mM CaCl2, 10 mM HEPES at pH 7.4 with NaOH.\nThe effects of various pharmacological agents on currents elicited by voltage pulses to +50 mV have been studied in TASK-2-exprcssing. COS cells."}},
  "data": [
    {"smiles": "CCCCCCCCCCCCCC(=O)O[C@@H]1[C@@H](C)[C@@]2(O)[C@@H](C=C(CO)C[C@]3(O)C(=O)C(C)=C[C@@H]23)[C@@H]2C(C)(C)[C@]12OC(C)=O", "note": "[PMA, phorbol-12 myristate acetate]", "values": [
      {"measurement": "effect on TWIK-1 currents", "setting": "[1]", "value": "increases"},
      {"measurement": "activation by PMA", "setting": "[2]", "value": "conserves the capacity to be activated"},
      {"measurement": "sensitivity of TASK1 currents", "setting": "[3]", "value": "insensitive"},
      {"measurement": "sensitivity of TASK-2 currents", "setting": "[4]", "value": "insensitive"}
    ]}
  ]
}
